Values joined by “and” are separate entries in the source; they are usually repeats but may differ in a detail not shown here. Equal entries are not always repeated. “Also recorded” adds a separate entry of the source.
Assays:
[1] = tested on: Immunoglobulin levels (IgG, IgA and IgM); experiment: First observational study: serum immunoglobulin levels by nephelometry, clozapine vs clozapine-naive patients; assay type: in vivo, human; conditions: secondary causes excluded
[2] = tested on: specific antibody titres against Haemophilus influenzae, Tetanus and Pneumococcal capsular polysaccharide; parameters: species or system human; conditions: in vivo
[3] = tested on: Immunoglobulin levels (IgG, IgA and IgM); experiment: Referred clozapine patients (Immunology clinic): serum immunoglobulins; assay type: in vivo, human
[4] = tested on: circulating B cell subsets; experiment: Second observational study (interim analysis): peripheral blood B cell subsets by FACS; assay type: in vivo, human; conditions: interim data
[5] = tested on: splenic B cell and T cell populations; experiment: Wild type mouse study: spleen immunophenotyping by flow cytometry; assay type: in vivo, C57BL/6 mice
[6] = sub-group C: schizophrenia diagnoses only, n=87
[7] = sub-group D: smokers only, n=57
[8] = 13 referred patients on clozapine
[9] = 13 referred patients, clozapine 200-750 mg, duration >4 to 21 years (two had stopped), one line per patient

CN1CCN(C2=Nc3cc(Cl)ccc3Nc3ccccc32)CC1 [Clozapine, clozapine]
% of patients with Serum IgA <0.5 g/L (Reference range 0.8-4.0 g/L) [1, 6]: 2.3% | % of patients with Serum IgA <0.6 g/L [1, 6]: 3.5% | % of patients with Serum IgA <0.7 g/L [1, 6]: 6.9% | % of patients with Serum IgA <0.8 g/L (below reference range) [1, 6]: 14.9% | % of patients with Serum IgG <3 g/L (Reference range 6-16 g/L) [1, 6]: 1.2% | % of patients with Serum IgG <4 g/L [1, 6]: 1.2% | % of patients with Serum IgG <5 g/L [1, 6]: 2.3% | % of patients with Serum IgG <6 g/L (below reference range) [1, 6]: 9.2% | % of patients with Serum IgM <0.2 g/L (Reference range 0.5-1.9 g/L) [1, 6]: 5.8% | % of patients with Serum IgM <0.3 g/L [1, 6]: 12.6% | % of patients with Serum IgM <0.4 g/L [1, 6]: 27.6% | % of patients with Serum IgM <0.5 g/L (below reference range) [1, 6]: 35.6% | % of patients with Serum IgA <0.5 g/L (Reference range 0.8-4.0 g/L) [1, 7]: 3.5% | % of patients with Serum IgA <0.6 g/L [1, 7]: 3.5% | % of patients with Serum IgA <0.7 g/L [1, 7]: 3.5% | % of patients with Serum IgA <0.8 g/L (below reference range) [1, 7]: 10.5% | % of patients with Serum IgG <3 g/L (Reference range 6-16 g/L) [1, 7]: 1.8% | % of patients with Serum IgG <4 g/L [1, 7]: 1.8% | % of patients with Serum IgG <5 g/L [1, 7]: 1.8% | % of patients with Serum IgG <6 g/L (below reference range) [1, 7]: 8.8% | % of patients with Serum IgM <0.2 g/L (Reference range 0.5-1.9 g/L) [1, 7]: 1.78% | % of patients with Serum IgM <0.4 g/L [1, 7]: 26.3% | % of patients with Serum IgM <0.5 g/L (below reference range) [1, 7]: 33.3% | % of patients with IgG-Haemophilus B <1.0 mcg/ml (below protective level) [2]: 51% and 51.2% and 51.1% and 49.4% and 50.9% | % of patients with IgG-Pneumococcus <35 mg/L [2]: 39.0% and 38.3% and 37.9% and 45.6% | % of patients with IgG-Pneumococcus <50 mg/L (below protective level) [2]: 52.1% and 50.6% and 54.4% | % of patients with IgG-Tetanus <0.1 IU/ml (below protective level) [2]: 10.6% and 11.5% and 12.3% | IgM-Pneumococcus [2]: 58.5 U/L and 59.8 U/L and 60.4 U/L and 61.6 U/L | Pneumococcal IgA level [2]: 31 U/ml | Pneumococcal IgM level [2]: 58.5 U/ml | pneumococcal IgA level [2]: 31.0 U/L | mean IgA, referred patients [3, 8]: 0.34 g/L | mean IgG, referred patients [3, 8]: 3.6 g/L | mean IgM, referred patients [3, 8]: 0.21 g/L | serum IgA, individual referred patients [3, 9]: IgA 0.54 g/L and <0.22 g/L (6×) and IgA 0.49 g/L and IgA 0.38 g/L and undetect- and IgA 0.26 g/L and IgA 0.81 g/L and IgA 0.63 g/L | serum IgG, individual referred patients [3, 9]: IgG 4.8 g/L and <1.34 g/L (2×) and IgG 5.24 g/L and IgG 2.68 g/L and IgG 2.98 g/L and IgG 1.2 g/L and IgG 3.3 g/L and IgG 2.38 g/L and IgG 4.24 g/L and IgG 6.65 g/L and IgG 5.61 g/L and IgG 4.79 g/L | serum IgM, individual referred patients [3, 9]: IgM 0.3 g/L and <0.17 g/L (7×) and 0.41 g/L (2×) and 0.23 g/L and 0.07 g/L and 0.18 g/L | serum IgG, individual referred patients ([3]; 13 referred patients, clozapine 200-750 mg, duration >4 to 21 years (two had stopped), one line per patient, listed as clozapine): 3.3 g/L | serum IgG post-discontinuation of clozapine ([3]; FIG. 5, gradual recovery over 3 years): 5.95 g/L | serum IgG at discontinuation of clozapine ([3]; FIG. 5, start of recovery): 3.5 g/L | IgA and IgM following cessation of clozapine ([3]; FIG. 5 / one patient over 24 months): without clear improvement; also recorded: remained low | serum IgM after stopping clozapine ([3]; one patient, 24 months after clozapine cessation): 0.49 after 24 months | serum IgG after stopping clozapine, intermediate value ([3]; one patient, within 24 months after cessation): 4.8 g/L | overall CD19+ B cell numbers vs control ([4]; FIG. 8A-B): not significantly different | naive (CD19+CD27-) B cells as a proportion of total CD19+ B cells ([4]; FIG. 9A-C): Small increase | overall memory B cell pool ([4]; FIG. 10A-C): without perturbation | IgM hi IgD lo memory B cell subpopulation ([4]; FIG. 12A-C): without perturbation | circulating levels of marginal zone B cells ([4]; FIG. 14A-C): No significant difference | class-switched memory B cells (CD27+ IgM- IgD- as % B) ([4]; P=0.06 vs control, FIG. 11A-C): Strong trends to a specific reduction | levels of plasmablasts ([4]; P=0.07 vs control clozapine naive, FIG. 15A-C): Strong trends to reduction | percentage of splenic B cells (B220+TCR-beta-) of total live splenocytes ([5]; 5 mg/kg and 10 mg/kg IP, 21 days, FIG. 21): significantly lower percentage | other splenic cell populations (B220-TCR-beta-) ([5]; FIG. 21): No effect | percentage of splenic T cells ([5]; FIG. 21): reciprocal increase | splenic follicular B cell subset ([5]; FIG. 22): no specific reductions | splenic marginal zone B cell subset ([5]; FIG. 22): no specific reductions | proportion of T2 B cells in the spleen ([5]; across all doses, FIG. 22): small increase | activated T cells (B220+TCR-beta+) in spleen vs control ([5]; clozapine 2.5-10 mg/kg, haloperidol 1 mg/kg, IP 21 days, FIG. 21): reduced in dose-dependent fashion | transitional stage 1 (T1) B cells in the spleen ([5]; including at the 2.5 mg/kg dose, FIG. 22): mildly reduced proportion | germinal centre cells in the spleen vs control or haloperidol ([5]; steady state, FIG. 22): no differences observed
